Assay results published in patent publication US20140348901A1, “COMBINATORIAL METHODS AND COMPOSITIONS FOR TREATMENT OF MELANOMA” (The Penn State Research Foundation, priority 2004, published 2014).

What was measured:
UACC 903 cells [1] = experiment: BAY 43-9006 growth inhibition/IC-50 of UACC 903 melanoma cells (SRB); format: cell-based, human; conditions: 72 hours; read-out: IC-50, concentration that reduced UACC 903 cell survival by half
Description: To measure the growth inhibitory effects or IC-50 of BAY 43-9006 on UACC 903 cells, 5×10^3 cells/well were plated into 96-well plates. Following 24 hours, varying concentrations of BAY 43-9006 (0, 0.02, 0.1, 0.4, 1.6, 6.3, 25, or 100 uM) was added to duplicate 8-strip wells in the plate. After 72 hours of growth at 37° C. in a 5% CO2 humidified atmosphere, media was discarded and cells were fixed in 10% trichloroacetic acid. Surviving cells at each concentrations of the drug were calculated using the SRB binding assay (Stahl J M et al. Cancer Res. 63: 2881-90 (2003)).

[2] = test system: wild type or mutant ^V599EB-Raf protein; experiment: pMek and pErk in HEK 293T cells expressing HA-tagged wild type or mutant B-Raf exposed to BAY 43-9006; format: cell-based, human; conditions: 5 uM, 2 hours
Description: The BAY 43-9006 compound used for these studies was synthesized as described in ref (Bankston D et al. Organic Process Res Dev. 6: 777-81 (2002)). To evaluate the inhibitory effects of BAY 43-9006 on wild type and mutant B-Raf, HEK 293T cells were transfected with HA-tagged wild type B-RAF, mutant ^V599EB-RAF or vector (pcDNA3) using Calcium Phosphate as described previously (Robertson G P et al. Proc Natl Acad Sci USA. 95: 9418-23 (1998)). Following transfection (72 hours) media was replaced with DMEM media supplemented with 10% FBS and 5 uM BAY 43-9006 or DMSO vehicle. Two hours later, protein lysates were collected for Western blot analysis. Levels of phosphorylated Mek and Erk were quantified from 3 independent blots and fold differences under different conditions were estimated after normalizing against an Erk 2 loading control.

[3] = test system: mutant ^V599EB-Raf protein signaling; experiment: pMek and pErk Western blot in UACC 903 cells with increasing BAY 43-9006; format: cell-based, human
C8161 cells [4] = experiment: pMek and pErk levels in C8161 cells with BAY 43-9006; format: cell-based, human
UACC 903 cells [5] = experiment: Pretreatment of mice with BAY 43-9006, UACC 903 tumor development; format: in vivo, nude mice; conditions: 50 mg/kg i.p.
Description: (§1) Effect of BAY 43-9006 on tumor development was measured by subcutaneously injecting 5×10^6 UACC 903 or 1×10^6 1205 Lu cells into nude mice. After 6 days when a small tumor (50-100 mm^3) had developed, the mice received an intra peritoneal injection on alternate days consisting of 50 μl of vehicle (DMSO), or the drug BAY 43-9006 at concentrations of 10, 50 or 100 mg/kg body weight for UACC 903 cells and 50 mg/kg body weight for 1205 Lu cells. For studies involving pretreatment with BAY 43-9006, 50 mg/kg body weight of drug was intra peritoneally injected twice (−4 and −2 days) prior to subcutaneous injection of UACC 903 or 1205 Lu cells. The mechanism by which pharmacological inhibition of mutant ^V599EB-Raf delays tumor development was identified by comparing tumors of the same size developing in parallel. This was achieved by subcutaneous injection of 5×10^6 UACC 903 cells followed at day 6 by intra peritoneal injection every 2 days with 50 mg/kg of BAY 43-9006. For temporal and spatial matching of control DMSO with drug treated tumors, either 1×10^6, 2.5×10^6 or 5×10^6 million UACC 903 cells were subcutaneously injected and from day 6 treated intra peritoneally with DMSO vehicle every 2 days. Drug or vehicle treated tumors of the same size developing in parallel were harvested at days 9, 11, 13 and 15 for comparison. […]

1205 Lu cells = experiment: Pretreatment of mice with BAY 43-9006, 1205 Lu tumor development; format: in vivo, nude mice; conditions: 50 mg/kg i.p., 1205 Lu (not shown)
Description: as §1

UACC 903 tumors [6] = experiment: BAY 43-9006 on preexisting UACC 903 tumors in nude mice; format: in vivo
Description: (§2) Effect of BAY 43-9006 on tumor development was measured by subcutaneously injecting 5×10^6 UACC 903 or 1×10^6 1205 Lu cells into nude mice. After 6 days when a small tumor (50-100 mm^3) had developed, the mice received an intra peritoneal injection on alternate days consisting of 50 μl of vehicle (DMSO), or the drug BAY 43-9006 at concentrations of 10, 50 or 100 mg/kg body weight for UACC 903 cells and 50 mg/kg body weight for 1205 Lu cells. For studies involving pretreatment with BAY 43-9006, 50 mg/kg body weight of drug was intra peritoneally injected twice (−4 and −2 days) prior to subcutaneous injection of UACC 903 or 1205 Lu cells. The mechanism by which pharmacological inhibition of mutant ^V599EB-Raf delays tumor development was identified by comparing tumors of the same size developing in parallel. This was achieved by subcutaneous injection of 5×10^6 UACC 903 cells followed at day 6 by intra peritoneal injection every 2 days with 50 mg/kg of BAY 43-9006. For temporal and spatial matching of control DMSO with drug treated tumors, either 1×10^6, 2.5×10^6 or 5×10^6 […] UACC 903 cells were subcutaneously injected and from day 6 treated intra peritoneally with DMSO vehicle every 2 days. Drug or vehicle treated tumors of the same size developing in parallel were harvested at days 9, 11, 13 and 15 for comparison. At each time point, tumors from mice treated with vehicle or drug were harvested for analysis of cell proliferation, apoptosis and vascular development, as described previously (Stahl J M et al. Cancer Res. 64: 7002-10 (2004), Stahl J M et al. Cancer Res. 63: 2881-90 (2003)).
(§3) It is currently unknown whether targeting mutant ^V599EB-Raf in established preexisting melanoma tumors could retard tumor development, and if so, whether the mechanism is the same as that occurring when targeting ^V599EB-Raf in cells prior to tumor formation. Therefore, we next examined whether pharmacologically targeting B-Raf in preexisting melanoma tumors would inhibit tumor development by a similar mechanism. Five million UACC 903 cells, one million 1205 Lu cells or five million C8161 cells were subcutaneously injected into 4- to 6-week old female nude mice. On day 6, vehicle (DMSO) or BAY 43-9006 compound dissolved in vehicle (10, 50 or 100 mg/kg) was administered to mice via intra peritoneal injection every 48 hours. A 48 hour time period between drug administrations was chosen since inhibitory effects on the MAP kinase signaling pathway in UACC 903, 1205 Lu and C8161 cells persisted for at least that period (data not shown). Size of the developing tumors was measured using calipers on alternate days and the results are shown for UACC 903 cells in FIG. 4A and 1205 Lu cells in FIG. 15B. While all concentrations of the BAY 43-9006 compound slowed UACC 903 tumor development, only concentrations ≧50 mg/kg caused tumor development to plateau 7 days following the start of treatment (FIG. 4B).

1205 Lu tumors = experiment: BAY 43-9006 on preexisting 1205 Lu tumors in nude mice; format: in vivo; conditions: 50 mg/kg
Description: as §1, with “43-9006.” for “43-9006. For temporal and spatial matching of control DMSO with drug treated tumors, either 1×10^6, 2.5×10^6 or 5×10^6 million UACC 903 cells were subcutaneously injected and from day 6 treated intra peritoneally with DMSO vehicle every 2 days. Drug or vehicle treated tumors of the same size developing in parallel were harvested at days 9, 11, 13 and 15 for comparison.”
It is currently unknown whether targeting mutant ^V599EB-Raf in established preexisting melanoma tumors could retard tumor development, and if so, whether the mechanism is the same as that occurring when targeting ^V599EB-Raf in cells prior to tumor formation. […] Size of the developing tumors was measured using calipers on alternate days and the results are shown for UACC 903 cells in FIG. 4A and 1205 Lu cells in FIG. 15B. […]

C8161 cells [7] = experiment: BAY 43-9006 on preexisting C8161 tumors in nude mice; format: in vivo; conditions: C8161 (data not shown)
From the text: as §3

phosphorylated Erk = experiment: In vivo pErk measurements in UACC 903 tumor sections (immunohistochemistry); design: species or system nude mice; conditions: 50 mg/kg, 9 days after start of treatment
Description: To quantitate changes in pErk levels in formalin-fixed, paraffin-embedded tumor sections, antigen retrieval was performed with 0.01 M citrate buffer at pH 6.0 for 20 minutes in a 95° C. water bath. Slides were cooled for 20 minutes, rinsed in PBS and then incubated in 3% H2O2 for 10 minutes to quench endogenous peroxidase activity. Next, sections were blocked with 1% BSA for 30 minutes and incubated with anti-pERK antibody at a 1:100 dilution (Cell Signaling Technologies, Beverly, Mass.) overnight at 4° C. Following rinsing in PBS, sections were incubated with biotinylated anti rabbit IgG for 1 hour, rinsed again in PBS, and incubated with peroxidase labeled streptavidine for 30 minutes. […] The average percentage of cells±SEM that stained positive for pErk was counted from a minimum of 6 different tumors with 4-6 fields counted per tumor.
To confirm that the BAY 43-9006 compound affected activity of the mutant ^V599EB-Raf signaling pathway in tumors, the percentage of cells expressing elevated levels of phosphorylated Erk was scored in tumors from mice 9 days after start of treatment with vehicle (DMSO) or vehicle containing 50 mg/kg BAY 43-9006 (FIG. 15C).

UACC 903 tumors [8] = experiment: Apoptosis, cell proliferation and vessel density in size- and time-matched UACC 903 tumors treated with BAY 43-9006; format: in vivo, nude mice
Description: as §2
Apoptosis measurements on formalin-fixed, paraffin-embedded tumor sections were undertaken using the TUNEL TMR Red Apoptosis kit from Roche (Manheim, Germany), as described previously (Stahl J M et al. Cancer Res. 64: 7002-10 (2004), Stahl J M et al. Cancer Res. 63: 2881-90 (2003)). Cell Proliferation rates in formalin-fixed tumor sections were measured using the RPN 20 cell proliferation kit (Amersham Biosciences, Piscataway, N.J.) that utilizes BrdU incorporation and immunocytochemistry. […] The number of BrdU stained cells were scored as the percentage of total cells of tumors treated with BAY 43-9006 or vehicle (DMSO). Quantification of vessels density using a purified rat anti-mouse CD31 (PECAM-1) monoclonal antibody (Pharmingen, San Diego, Calif.) has been described previously (Stahl J M et al. Cancer Res. 64: 7002-10 (2004), Stahl J M et al. Cancer Res. 63: 2881-90 (2003)). The proportional area of the tumors occupied by the vessels over the total area was calculated using the IP Lab imaging software program. For all tumor analyses, a minimum of 6 different tumors with 4-6 fields per tumor was analyzed and results represented as the average±SEM.

VEGF = VEGF secretion ELISA, UACC 903 or 1205 Lu cells; format: cell-based, human; conditions: BAY 43-9006 5, 10, 15 uM; UACC 903 and 1205 Lu
Description: To determine the amount of VEGF secreted by cells following siRNA-mediated knockdown of B-Raf protein or after treatment with BAY 43-9006, the human VEGF Quantikine kit (DVE00) was used (R&D Systems Inc., Minneapolis, Minn.). UACC 903 or 1205 Lu cells (5×10^5) nucleofected with the various siRNA were plated in 60 mm petri dishes and 24 hours later media replaced with DMEM containing 2% FBS. Following an additional 24 hours, media was again replaced and conditioned media for ELISA analysis was collected 24 and 48 hours later. For BAY 43-9006 studies. 3×10^5 UACC 903 or 1205 Lu cells were plated into 60 mm petri dishes and 24 hours later media was changed to DMEM containing 2% FBS. After an additional 24 hours, media was replaced with DMEM supplemented with 2% FBS alone or in combination with BAY 43-9006 (5, 10, 15 uM) or DMSO vehicle. After 12 or 24 hours, conditioned media was collected for ELISA analysis. The media was cleared by centrifugation at 14,000 rpm (4° C.) for 5 minutes and stored at −80° C. VEGF ELISA analysis was performed in triplicate on duplicate experiments according to the manufacturer's instructions.

advanced stage melanoma = conditions: cited from earlier work

SMILES: CNC(=O)c1cc(Oc2ccc(NC(=O)Nc3ccc(Cl)c(C(F)(F)F)c3)cc2)ccn1 [BAY 43-9006]
- IC50 (UACC 903 cells [1]): 5 to 6 µM
- Fold reduction of phosphorylated Erk [2]: 3-4 fold
- Fold reduction of phosphorylated Mek [2]: 5-6 fold
- Persistence of inhibitory effects on MAP kinase signaling ([3]; UACC 903 and 1205 Lu cell lines): 2 to 3 days
- Levels of phosphorylated (active) Mek and Erk ([3]; UACC 903 cells, 2 hours, increasing concentrations): dose responsive manner
- pMek and pErk levels (C8161 cells [4]): inhibited
- Tumor development after pretreatment (UACC 903 cells [5]): significantly inhibited
- Tumor development after pretreatment (1205 Lu cells): significantly inhibited
- Tumor size on day 27 (UACC 903 tumors [6]; 10 mg/kg): > 2,400 mm^3
- Delay of tumor development (UACC 903 tumors [6]; 10 mg/kg i.p. every 48 hours): ~1 week
- Increase in tumor sizes from days 13-to-31 (UACC 903 tumors [6]; UACC 903, after a week of drug treatment): no statistically significant increase
- Tumor development plateau, days following the start of treatment (UACC 903 tumors [6]; concentrations ≧50 mg/kg): 7 days
- Concentrations that reduce the tumorigenic potential of melanoma cells containing mutant ^V599EB-Raf (UACC 903 tumors [6]; i.p. every 2 days from day 6): ≥ 50 mg/kg
- Plateau in tumor size, days (1205 Lu tumors): 17-to-31 days
- Kinetics of tumor formation (C8161 cells [7]): no difference
- Fold fewer pErk positive cells than vehicle treated tumors (phosphorylated Erk): ~3 fold
- Tumor area occupied by apoptosis by day 15 (UACC 903 tumors [8]; 50 mg/kg): up to 25%
- Vessel development at day 9 vs vehicle (UACC 903 tumors [8]; 50 mg/kg): statistically significant difference
- Tumor area undergoing apoptosis by day 20 (UACC 903 tumors [8]; 50 mg/kg (data not shown)): ~50%
- Decrease in percentage of proliferating cells (UACC 903 tumors [8]; preexisting tumors, 50 mg/kg): 32-57%
- VEGF secretion (VEGF): dose dependent manner
- Efficacy of monotherapy (advanced stage melanoma; advanced stage melanoma patients, oral): relatively ineffective
- Response rate in patients (advanced stage melanoma; in combination with paclitaxel and carboplatinum): 50%
